Reference: PubChem BioAssay (NCI)
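The compound was tested at five concentrations on cells cultured in 96-well plates, with a 48-hour exposure period. At the TGI there is no net growth.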

How the values were obtained:
Assay in all cases: NCI anticancer screen, dose series, 48 h
A498 renal = tested on: A498 renal
A549 NSCLC = tested on: A549 NSCLC
ACHN renal = tested on: ACHN renal
BT-549 breast = tested on: BT-549 breast
CAKI-1 renal = tested on: CAKI-1 renal
CCRF-CEM leukemia = tested on: CCRF-CEM leukemia
COLO 205 colon = tested on: COLO 205 colon
DU-145 prostate = tested on: DU-145 prostate
EKVX NSCLC = tested on: EKVX NSCLC
HCC-2998 colon = tested on: HCC-2998 colon
HCT-15 colon = tested on: HCT-15 colon
HL-60(TB) leukemia = tested on: HL-60(TB) leukemia
HOP-62 NSCLC = tested on: HOP-62 NSCLC
HOP-92 NSCLC = tested on: HOP-92 NSCLC
HS 578T breast = tested on: HS 578T breast
HT29 colon = tested on: HT29 colon
IGROV1 ovarian = tested on: IGROV1 ovarian
KM12 colon = tested on: KM12 colon
LOX IMVI melanoma = tested on: LOX IMVI melanoma
M14 melanoma = tested on: M14 melanoma
MALME-3M melanoma = tested on: MALME-3M melanoma
MCF7 breast = tested on: MCF7 breast
MDA-MB-231 breast = tested on: MDA-MB-231 breast
MDA-MB-435 = tested on: MDA-MB-435
MDA-N = tested on: MDA-N
MOLT-4 leukemia = tested on: MOLT-4 leukemia
NCI-H226 lung = tested on: NCI-H226 lung
NCI-H23 lung = tested on: NCI-H23 lung
NCI-H460 lung = tested on: NCI-H460 lung
NCI-H522 lung = tested on: NCI-H522 lung
NCI/ADR-RES ovarian = tested on: NCI/ADR-RES ovarian
OVCAR-3 ovarian = tested on: OVCAR-3 ovarian
OVCAR-5 ovarian = tested on: OVCAR-5 ovarian
OVCAR-8 ovarian = tested on: OVCAR-8 ovarian
PC-3 prostate = tested on: PC-3 prostate
RPMI-8226 leukemia = tested on: RPMI-8226 leukemia
RXF 393 renal = tested on: RXF 393 renal
SF-268 CNS = tested on: SF-268 CNS
SF-539 CNS = tested on: SF-539 CNS
SK-MEL-2 melanoma = tested on: SK-MEL-2 melanoma
SK-MEL-28 melanoma = tested on: SK-MEL-28 melanoma
SK-MEL-5 melanoma = tested on: SK-MEL-5 melanoma
SN12C renal = tested on: SN12C renal
SNB-19 CNS = tested on: SNB-19 CNS
SNB-75 CNS = tested on: SNB-75 CNS
SR leukemia = tested on: SR leukemia
SW-620 colon = tested on: SW-620 colon
T-47D breast = tested on: T-47D breast
TK-10 renal = tested on: TK-10 renal
U251 CNS = tested on: U251 CNS
UO-31 renal = tested on: UO-31 renal
786-0 renal = tested on: 786-0 renal
HCT-116 colon = tested on: HCT-116 colon
K-562 leukemia = tested on: K-562 leukemia
OVCAR-4 ovarian = tested on: OVCAR-4 ovarian
SF-295 CNS = tested on: SF-295 CNS
SK-OV-3 ovarian = tested on: SK-OV-3 ovarian
UACC-257 melanoma = tested on: UACC-257 melanoma
UACC-62 melanoma = tested on: UACC-62 melanoma

Measured: TGI

O=c1[nH]c(=O)n(CCOCP(=O)(O)O)nc1Br
not listed: 786-0 renal | HCT-116 colon | K-562 leukemia | OVCAR-4 ovarian | SF-295 CNS | SK-OV-3 ovarian | UACC-257 melanoma | UACC-62 melanoma
> 100 µM: all other assays above

O=C1CS(=O)(=O)C(c2cccc(Oc3ccccc3)c2)N1C1CC1 (stereo not given)
64.2 µM: OVCAR-4 ovarian
83.6 µM: NCI-H226 lung
67.7 µM: SK-OV-3 ovarian
80.7 µM: SNB-75 CNS
80 µM: ACHN renal
66.2 µM: PC-3 prostate
58 µM: MCF7 breast
75.1 µM: MDA-MB-435
72.9 µM: COLO 205 colon
55.1 µM: RXF 393 renal
39.3 µM: SK-MEL-5 melanoma
80.1 µM: MDA-N
not listed: A498 renal | CAKI-1 renal | HOP-62 NSCLC | IGROV1 ovarian | RPMI-8226 leukemia
> 100 µM: all other assays above
